Molecular target: T1, Bcl-XL (Homo sapiens, UniProt Q07817)
T1 construct: GST tagged Bcl-XL ΔC25 protein (0.6 nM Final concentration)
Test: Alphascreen competition assay, GST tagged Bcl-XL with biotinylated Bim BH3-26 peptide
Assay type: binding
Conditions: GST tagged Bcl-XL ΔC25 protein 0.6 nM, biotinylated Bim BH3-26 peptide 5.0 nM, read-out: IC50 against Bcl-XL
Source text: The following example describes the measurement of competition of compounds of the invention with Bim26-mer for a Bcl-2 homologue binding site.
Alphascreen (Amplified Luminescent Proximity Homogenous Assay) is a bead based technology which measures the interaction between molecules. The assay consists of two hydrogel coated beads which, when brought into close proximity by a binding interaction, results in the transfer of singlet oxygen from a donor bead to an acceptor bead.
Upon binding and excitation with laser light at 680 nm, a photosensitizer in the donor bead converts ambient oxygen to a more excited singlet state. This singlet oxygen then diffuses and reacts with a chemiluminescer in the acceptor bead. Fluorophores within the same bead are activated and result in the emission of light at 580-620 nm.
Screening of the compounds of the invention is performed using the Alphascreen GST (glutathione s-transferase) detection kit system. […] To this reaction mix, anti-GST coated acceptor beads and Streptavidin coated donor beads, both at 15 μg/ml Final concentration, are added and the assay mixture is incubated for 4 hours at room temperature before reading. […]
Assay buffer contains 50 mM Hepes pH 7.4, 10 mM DTT, 100 mM NaCl, 0.05% Tween and 0.1 mg/ml casein. […] Assays are performed in 384 well white Optiplates and is analyzed on the PerkinElmer Fusion alpha plate reader (Ex680, Em520-620 […]). […]

T1 sequence (Q07817 1-208 limits assumed, species assumed): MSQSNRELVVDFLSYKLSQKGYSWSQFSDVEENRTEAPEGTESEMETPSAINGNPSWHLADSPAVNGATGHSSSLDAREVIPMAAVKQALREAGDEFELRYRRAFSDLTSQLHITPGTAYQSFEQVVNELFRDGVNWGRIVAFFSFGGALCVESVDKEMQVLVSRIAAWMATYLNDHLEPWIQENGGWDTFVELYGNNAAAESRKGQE

Question: With `O=[N+]([O-])c1cc(S(=O)(=O)Nc2ncnc3cc(-c4ccc(F)cc4)ccc23)ccc1NCCSc1ccccc1` [compound c, N-(7-(4-fluorophenyl)quinazolin-4-yl)-3-nitro-4-(2-(phenylthio)ethylamino)benzenesulfonamide] as the compound, how does the IC50 read?
Answer: 3000 nM

Reference: US20110098305A1, “ARYLSULFONAMIDE COMPOUNDS, COMPOSITIONS AND METHODS OF USE” (priority 2008, published 2011)
